Assay results as given in the NIST ThermoML archive (doi:10.1016/j.jct.2016.03.026).

Assay: xn = mol fraction of the nth substance listed
Conditions: 304.21 K, Fluid (supercritical or subcritical phases), Vibrating tube method, x1 = 0.97

O=C=O [carbon dioxide] + CO
Conditions | mass density [kg/m3]
10625 kPa | 791.47
10650 kPa | 791.91
10675 kPa | 792.32
10700 kPa | 792.79
10725 kPa | 793.26
10750 kPa | 793.67
10775 kPa | 794.08
10800 kPa | 794.49
10825 kPa | 794.91
10850 kPa | 795.38
10875 kPa | 795.84
10900 kPa | 796.21
10925 kPa | 796.66
10950 kPa | 797.06
10975 kPa | 797.53
11000 kPa | 797.93
11025 kPa | 798.32
11050 kPa | 798.73
11075 kPa | 799.17
11100 kPa | 799.63
11125 kPa | 799.99
11150 kPa | 800.45
11175 kPa | 800.8
11200 kPa | 801.23
11225 kPa | 801.64
11250 kPa | 802.05
11275 kPa | 802.5
11300 kPa | 802.86
11325 kPa | 803.31
11350 kPa | 803.73
11375 kPa | 804.09
11400 kPa | 804.56
11425 kPa | 804.93
11450 kPa | 805.27
11475 kPa | 805.69
11500 kPa | 806.12
11525 kPa | 806.52
11550 kPa | 806.91
11575 kPa | 807.3
11600 kPa | 807.66
11625 kPa | 808.01
11650 kPa | 808.41
11675 kPa | 808.81
11700 kPa | 809.25
11725 kPa | 809.62
11750 kPa | 810
11775 kPa | 810.37
11800 kPa | 810.74
11825 kPa | 811.11
11850 kPa | 811.47
11875 kPa | 811.83
11900 kPa | 812.25
11925 kPa | 812.53
11950 kPa | 812.98
11975 kPa | 813.33
12000 kPa | 813.7
12025 kPa | 814.08
12050 kPa | 814.43
12075 kPa | 814.76
12100 kPa | 815.17
12125 kPa | 815.5
12150 kPa | 815.82
12175 kPa | 816.22
12200 kPa | 816.54
12225 kPa | 816.89
12250 kPa | 817.23
12275 kPa | 817.54
12300 kPa | 817.94
12325 kPa | 818.27
12350 kPa | 818.61
12375 kPa | 818.95
12400 kPa | 819.29
12425 kPa | 819.62
12450 kPa | 819.95
12475 kPa | 820.29
12500 kPa | 820.61
12525 kPa | 820.93
12550 kPa | 821.24
12575 kPa | 821.61
12600 kPa | 821.94
12625 kPa | 822.23
12650 kPa | 822.53
12675 kPa | 822.85
12700 kPa | 823.18
12725 kPa | 823.45
12750 kPa | 823.79
12775 kPa | 824.13
12800 kPa | 824.43
12825 kPa | 824.72
12850 kPa | 825.02
12875 kPa | 825.36
12900 kPa | 825.66
12925 kPa | 825.97
12950 kPa | 826.28
12975 kPa | 826.52
13000 kPa | 826.85
13025 kPa | 827.19
13050 kPa | 827.45
13075 kPa | 827.74
13100 kPa | 828.02
13125 kPa | 828.34
13150 kPa | 828.59
13175 kPa | 828.91
13200 kPa | 829.21
13225 kPa | 829.5
13250 kPa | 829.81
13275 kPa | 830.06
13300 kPa | 830.33
13325 kPa | 830.63
13350 kPa | 830.91
13375 kPa | 831.19
13400 kPa | 831.47
13425 kPa | 831.75
13450 kPa | 832.03
13475 kPa | 832.3
13500 kPa | 832.56
13525 kPa | 832.83
13550 kPa | 833.09
13575 kPa | 833.35
13600 kPa | 833.6
13625 kPa | 833.85
13650 kPa | 834.12
13675 kPa | 834.42
13700 kPa | 834.66
13725 kPa | 834.9
13750 kPa | 835.2
13775 kPa | 835.42
13800 kPa | 835.64
13825 kPa | 835.86
13850 kPa | 836.06
13875 kPa | 836.22
13900 kPa | 836.51
13925 kPa | 836.81
13950 kPa | 837.08
13975 kPa | 837.35
14000 kPa | 837.64
14025 kPa | 837.92
14050 kPa | 838.19
14075 kPa | 838.5
14100 kPa | 838.78
14125 kPa | 839.03
14150 kPa | 839.31
14175 kPa | 839.62
14200 kPa | 839.87
14225 kPa | 840.12
14250 kPa | 840.43
14275 kPa | 840.68
14300 kPa | 840.92
14325 kPa | 841.24
14350 kPa | 841.49
14375 kPa | 841.72
14400 kPa | 842.04
14425 kPa | 842.27
14450 kPa | 842.52
14475 kPa | 842.78
14500 kPa | 843.08
14525 kPa | 843.34
14550 kPa | 843.58
14575 kPa | 843.9
14600 kPa | 844.14
14625 kPa | 844.38
14650 kPa | 844.61
14675 kPa | 844.86
14700 kPa | 845.17
14725 kPa | 845.44
14750 kPa | 845.72
14775 kPa | 845.96
14800 kPa | 846.19
14825 kPa | 846.5
14850 kPa | 846.73
14875 kPa | 846.98
14900 kPa | 847.24
14925 kPa | 847.52
14950 kPa | 847.71
14975 kPa | 848
15000 kPa | 848.29
15025 kPa | 848.51
15050 kPa | 848.76
15075 kPa | 849.02
15100 kPa | 849.3
15125 kPa | 849.56
15150 kPa | 849.76
15175 kPa | 850.04
15200 kPa | 850.3
15225 kPa | 850.56
15250 kPa | 850.76
15275 kPa | 851.04
15300 kPa | 851.23
15325 kPa | 851.51
15350 kPa | 851.79
15375 kPa | 851.98
15400 kPa | 852.22
15425 kPa | 852.43
15450 kPa | 852.7
15475 kPa | 852.92
15500 kPa | 853.2
15525 kPa | 853.4
15550 kPa | 853.64
15575 kPa | 853.89
15600 kPa | 854.15
15625 kPa | 854.39
15650 kPa | 854.57
15675 kPa | 854.81
15700 kPa | 855.06
15725 kPa | 855.3
15750 kPa | 855.49
15775 kPa | 855.71
15800 kPa | 855.96
15825 kPa | 856.2
15850 kPa | 856.41
15875 kPa | 856.68
15900 kPa | 856.93
15925 kPa | 857.08
15950 kPa | 857.32
15975 kPa | 857.56
16000 kPa | 857.77
16025 kPa | 857.95
16050 kPa | 858.19
16075 kPa | 858.44
16100 kPa | 858.66
16125 kPa | 858.84
16150 kPa | 859.07
16175 kPa | 859.32
16200 kPa | 859.52
16225 kPa | 859.74
16250 kPa | 859.97
16275 kPa | 860.2
16300 kPa | 860.35
16325 kPa | 860.63
16350 kPa | 860.83
16375 kPa | 861.01
16400 kPa | 861.22
16425 kPa | 861.43
16450 kPa | 861.65
16475 kPa | 861.85
16500 kPa | 862.01
16525 kPa | 862.21
16550 kPa | 862.42
16575 kPa | 862.62
16600 kPa | 862.9
16625 kPa | 863.08
16650 kPa | 863.26
16675 kPa | 863.56
